The text below walks through data of ChEMBL document CHEMBL3751755, “Developing steroidal aromatase inhibitors-an effective armament to win the battle against breast cancer” (Eur J Med Chem, 2015).

By Ki is commonly meant the dissociation constant of the complex between target and ligand, obtained from inhibition or displacement. Lower therefore signals tighter binding.

For the assay, the target named is T1, Aromatase (Homo sapiens, UniProt P11511).
T1 sequence (P11511 whole entry): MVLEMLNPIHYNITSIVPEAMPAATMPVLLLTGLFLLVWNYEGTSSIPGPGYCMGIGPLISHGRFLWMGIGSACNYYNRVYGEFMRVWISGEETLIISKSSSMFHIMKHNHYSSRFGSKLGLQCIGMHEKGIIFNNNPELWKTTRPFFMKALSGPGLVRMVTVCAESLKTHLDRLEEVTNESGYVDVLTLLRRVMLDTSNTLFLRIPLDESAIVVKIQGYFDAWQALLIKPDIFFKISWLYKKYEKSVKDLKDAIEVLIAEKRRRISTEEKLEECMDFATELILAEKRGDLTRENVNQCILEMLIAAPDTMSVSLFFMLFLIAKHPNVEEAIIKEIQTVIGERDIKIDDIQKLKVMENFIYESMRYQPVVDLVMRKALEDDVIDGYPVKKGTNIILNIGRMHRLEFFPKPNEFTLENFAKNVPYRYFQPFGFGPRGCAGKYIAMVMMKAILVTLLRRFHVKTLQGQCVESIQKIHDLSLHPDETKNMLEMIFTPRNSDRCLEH
In the case of `C[C@]12CC[C@H]3[C@@H](CC[C@]45O[C@H]4C(=O)CC[C@]35CO)[C@@H]1CCC2=O`, the Ki was 5000 nM. In other words, the single-digit micromolar range.

The compound `CC(=O)O[C@H]1C[C@@H]2[C@H](CC[C@]3(C)C(=O)CC[C@@H]23)[C@@]2(C)CCCC=C12` returned a Ki of 12 nM.

Consider `C[C@]12CC[C@H]3[C@@H](CC(=O)[C@]45O[C@H]4C(=O)CC[C@]35C=O)[C@@H]1CCC2=O`, for which affinity was put at a Ki of 5000 nM. The same measure for `CC1(C)C[C@@]2(C)C(=CC1=O)[C@H](Br)C[C@@H]1[C@@H]2CC[C@]2(C)C(=O)CC[C@@H]12`: 10 nM; for `C[C@]12CC[C@H]3[C@@H](CC=C4C=CCC[C@@]43C)[C@@H]1CC[C@@H]2O`: 58 nM; for `CCCCC1=C[C@@H]2[C@H](CC[C@]3(C)C(=O)CC[C@@H]23)[C@@]2(C)C=CC(=O)C=C12`: 2.5 nM. Next, `C[C@]12CCC(=O)C=C1CC[C@@H]1[C@@H]2CC[C@]2(C)C(=O)CC[C@@H]12` [ANDROSTENEDIONE]: 35 nM. The compound `CC(=O)O[C@@H]1C[C@@H]2[C@H](CC[C@]3(C)C(=O)CC[C@@H]23)[C@@]2(C)CCCC=C12` returned an inhibitory constant (Ki) of 12 nM. This Ki is about 2.9-fold lower than that of the compound before. `C[C@]12CC[C@@H]3c4ccc(O)cc4[C@H](Cc4ccccc4)C[C@H]3[C@@H]1CCC2=O` registered a Ki of 100 nM. Next, `C[C@H]1C[C@@H]2[C@H](CC[C@]3(C)C(=O)CC[C@@H]23)[C@@]2(C)CCCC=C12`: 3.1 nM; `C[C@]12CC[C@@H]3c4ccc(O)cc4[C@@H](Cc4ccccc4)C[C@H]3[C@@H]1CCC2=O`: 100 nM. On to `CCCC1=C[C@@H]2[C@H](CC[C@]3(C)C(=O)CC[C@@H]23)[C@@]2(C)CCC(=O)C=C12`, for which the affinity, expressed as Ki, was 17 nM.

Compound `C[C@]12CC[C@@H]3c4ccc(O)c(NC(=O)c5ccncc5)c4CC[C@H]3[C@@H]1CCC2=O` showed an inhibition constant (Ki) of 1530 nM. Consider `Cc1cc2c(cc1O)CC[C@@H]1[C@@H]2CC[C@]2(C)C(=O)CC[C@@H]12`, for which the Ki is 100 nM. The compound `C[C@]12CC[C@@H]3c4cc(Cl)c(O)cc4CC[C@H]3[C@@H]1CC[C@@H]2O` gave an inhibitory constant (Ki) of 100 nM.

In turn, `CCCCCC[C@@H]1C[C@@H]2[C@H](CC[C@]3(C)C(=O)CC[C@@H]23)[C@@]2(C)CCC(=O)C=C12` yielded an inhibitory constant (Ki) of 2.8 nM.

`CO[C@H]1C[C@@H]2[C@H](CC[C@]3(C)C(=O)CC[C@@H]23)[C@@]2(C)CCCC=C12`: the affinity, expressed as Ki, was 12 nM. `CCCCCCCC[C@H]1C[C@@H]2[C@H](CC[C@]3(C)C(=O)CC[C@@H]23)[C@@]2(C)CCC(=O)C=C12` gave a Ki of 9.3 nM. The Ki values of the last two compounds are within 1.5-fold of each other. Next, `CCCCC1=C[C@@H]2[C@H](CC[C@]3(C)C(=O)CC[C@@H]23)[C@@]2(C)CCC(=O)C=C12`: 17 nM; `CCCCCC1=C[C@@H]2[C@H](CC[C@]3(C)C(=O)CC[C@@H]23)[C@@]2(C)CCC(=O)C=C12`: 17 nM.

`CC[C@H]1C[C@@H]2[C@H](CC[C@]3(C)C(=O)CC[C@@H]23)[C@@]2(C)CCCC=C12` displayed a Ki of 12 nM. As to `C[C@]12CC[C@H]3[C@@H](CC(=O)[C@]45O[C@H]4C(=O)CC[C@]35C)[C@@H]1CCC2=O`, the inhibition constant (Ki) was determined as 5000 nM. For the compound `C[C@]12CCCC(OC(=O)c3ccccc3)=C1CC[C@@H]1[C@@H]2CC[C@]2(C)C(=O)CC[C@@H]12`, the Ki stood at 70 nM.

The compound `C[C@]12C=CC(=O)C=C1C=C[C@@H]1[C@@H]2CC[C@]2(C)C(=O)CC[C@@H]12` had a Ki of 2.5 nM. Against the preceding compound, the Ki is about 28-fold lower. With `CCCCCC1=C[C@@H]2[C@H](CC[C@]3(C)C(=O)CC[C@@H]23)[C@@]2(C)C=CC(=O)C=C12`, the inhibition constant (Ki) came to 2.5 nM. `CCCCC[C@@H]1C[C@@H]2[C@H](CC[C@]3(C)C(=O)CC[C@@H]23)[C@@]2(C)CCC(=O)C=C12` gave an inhibitory constant (Ki) of 2.8 nM. Consider `C[C@@H]1C[C@@H]2[C@H](CC[C@]3(C)[C@@H](O)CC[C@@H]23)c2ccc(O)cc21`, for which the inhibition constant (Ki) worked out at 100 nM. In turn, `C[C@]12CCC=CC1=CC[C@@H]1[C@@H]2CC[C@]2(C)C(=O)CC[C@@H]12` came in with a Ki of 58 nM. As for `CCCC1=C[C@@H]2[C@H](CC[C@]3(C)C(=O)CC[C@@H]23)[C@@]2(C)C=CC(=O)C=C12`, affinity was put at a Ki of 2.5 nM.

In the case of `C[C@]12CCC(=O)C=C1C(c1ccc(OS(N)(=O)=O)cc1)=C[C@@H]1[C@@H]2CC[C@]2(C)C(=O)CC[C@@H]12`, the affinity, expressed as Ki, was 30 nM. Next, `C[C@]12CCC(=O)C=C1C(CCc1ccccc1)=C[C@@H]1[C@@H]2CC[C@]2(C)C(=O)CC[C@@H]12`: 10 nM; `CCCCCCC1=C[C@@]2(C)C(=C(O)C1=O)CC[C@@H]1[C@@H]2CC[C@]2(C)C(=O)CC[C@@H]12`: 31 nM. The compound `C[C@]12CC[C@@H]3c4cc(NC(=O)c5ccncc5)c(O)cc4CC[C@H]3[C@@H]1CCC2=O` showed a Ki of 2100 nM.

The compound `C[C@]12CC[C@@H]3c4ccc(O)cc4[C@H](Cc4ccccc4)C[C@H]3[C@@H]1CC[C@@H]2O` returned a Ki of 100 nM. Compound `C[C@]12CCC(=O)C=C1[C@@H](c1ccc(OS(N)(=O)=O)cc1)C[C@@H]1[C@@H]2CC[C@]2(C)C(=O)CC[C@@H]12` yielded a Ki of 39 nM. Take `C[C@]12CC[C@@H]3c4ccc(O)cc4[C@@H](CCCc4ccccc4)C[C@H]3[C@@H]1CCC2=O`: affinity was put at a Ki of 100 nM. Next, `C[C@H]1C[C@@H]2[C@H](CC[C@]3(C)[C@@H](O)CC[C@@H]23)c2ccc(O)cc21`: 100 nM; `C[C@]12CCC(=O)C=C1[C@@H](OCc1ccccc1)C[C@@H]1[C@@H]2CC[C@]2(C)C(=O)CC[C@@H]12`: 7 nM.

`C[C@]12CC[C@@H]3c4cc(Br)c(O)cc4CC[C@H]3[C@@H]1CCC2=O` registered a Ki of 100 nM.

Regarding `C[C@]12CC[C@H]3[C@@H](CC[C@]45O[C@H]4C(=O)CC[C@]35C=O)[C@@H]1CCC2=O`, the Ki worked out at 5000 nM. For the compound `C[C@]12C=CC(=O)C=C1C(CCc1ccccc1)=C[C@@H]1[C@@H]2CC[C@]2(C)C(=O)CC[C@@H]12`, the inhibition constant (Ki) stood at 8.5 nM. `CC1(C)C[C@@]2(C)C(=CC1=O)[C@@H](Br)C[C@@H]1[C@@H]2CC[C@]2(C)C(=O)CC[C@@H]12` came in with a Ki of 14 nM. Compound `C[C@]12CCC(=O)C=C1[C@@H](c1ccc(O)cc1)C[C@@H]1[C@@H]2CC[C@]2(C)C(=O)CC[C@@H]12` yielded an inhibitory constant (Ki) of 27 nM.

For the compound `CCCCCCCC[C@@H]1C[C@@H]2[C@H](CC[C@]3(C)C(=O)CC[C@@H]23)[C@@]2(C)CCC(=O)C=C12`, the Ki came out at 2.8 nM. Against the preceding compound, the Ki is about 9.6-fold lower. Next, `C[C@]12C=CC(=O)C=C1C(c1ccc(O)cc1)=C[C@@H]1[C@@H]2CC[C@]2(C)C(=O)CC[C@@H]12`: 75 nM; `C[C@]12CC[C@@H]3c4ccc(O)cc4[C@H](CCCc4ccccc4)C[C@H]3[C@@H]1CC[C@@H]2O`: 100 nM. For the compound `CCCCCC[C@H]1C[C@@H]2[C@H](CC[C@]3(C)C(=O)CC[C@@H]23)[C@@]2(C)CCC(=O)C=C12`, the affinity corresponds to a Ki of 9.3 nM. In turn, `C[C@]12CC[C@@H]3c4cc(F)c(O)cc4CC[C@H]3[C@@H]1CCC2=O` gave a Ki of 100 nM. Compound `CCCCCC(=O)O[C@H]1C[C@@H]2[C@H](CC[C@]3(C)C(=O)CC[C@@H]23)[C@@]2(C)CCC(=O)C=C12` returned a Ki of 7 nM. Next, `CCCCC[C@H]1C[C@@H]2[C@H](CC[C@]3(C)C(=O)CC[C@@H]23)[C@@]2(C)CCC(=O)C=C12`: 9.3 nM.
